In ChEMBL document CHEMBL6182838, “Structure-activity relationship expansion and microsomal stability assessment of the 2-morpholinobenzoic acid scaffold as antiproliferative phosphatidylcholine-specific phospholipase C inhibitors” (RSC Med Chem, 2025):

Key:
[1] = test system: Bacillus cereus; assay: Inhibition of Bacillus cereus phosphatidylcholine specific phospholipase C (PC-PLC BC) assessed as enzyme activity by measuring formation of resorufin fluorophore 10 uM by Amplex-Red based fluorescence assay relative to control; set-up: scale not given: the % may be the effect or the level left
[2] = test system: MDA-MB-231; assay: Antiproliferative activity against human MDA-MB-231 cells assessed as cell proliferation at 10 uM measured after 3 days incubation followed by incubated 5 hrs with [3H]-thymidine by 3H-thymidine incorporation assay relative to control; type: functional; settings: MDA-MB-231, 72 h, time 3 day, read-out: Activity
[3] = test system: HCT-116; assay: Antiproliferative activity against human HCT-116 cells assessed as cell proliferation at 10 uM measured after 3 days incubation followed by incubated 5 hrs with [3H]-thymidine by 3H-thymidine incorporation assay relative to control; type: functional; settings: HCT-116, 72 h, time 3 day, read-out: Activity

Activity [1]	SMILES	growth at 10 µM [2]	growth at 10 µM [3]
75.9%	COC(=O)c1ccc(NCc2ccccc2Cl)cc1N1CCOCC1	70.4%	43.2%
50.9%	O=C(NO)c1ccc(NCc2ccccc2F)cc1N1CCOCC1	79.6%	87.6%
95.8%	O=C(O)c1ccc(NCc2cccc(Br)c2)cc1N1CCOCC1	104%	101%
106%	COc1ccc(CNc2ccc(C(=O)O)c(N3CCOCC3)c2)cc1	110%	105%
97.4%	COC(=O)c1ccc(NCc2cccc(Br)c2)cc1N1CCOCC1	62.9%	34.7%
96.6%	O=C(O)c1ccc(NCc2ccccc2)cc1N1CCOCC1	96.8%	92.4%
103%	COC(=O)c1ccc(NCc2ccc(Br)cc2)cc1N1CCOCC1	68.9%	52.5%
109%	COC(=O)c1ccc(NCc2cccc(OC)c2)cc1N1CCOCC1	80.6%	48.5%
116%	O=C(O)c1cc(NCc2ccccc2Br)ccc1C1CCOCC1	108%	99.5%
33.1%	O=C(O)c1ccc(NCc2cccc(Cl)c2)cc1N1CCOCC1	87.2%	88.6%
41.3%	COC(=O)c1ccc(NCc2ccc(Cl)cc2)cc1N1CCOCC1	70.3%	43.8%
44.5%	COC(=O)c1cc(NCc2cccc(F)c2)ccc1C1CCOCC1	41.3%	29.2%
112%	COC(=O)c1cc(NCc2ccccc2Br)ccc1C1CCOCC1	16.4%	20.3%
45.3%	O=C(NO)c1ccc(NCc2cccc(Br)c2)cc1N1CCOCC1	25.3%	32.3%
82.2%	O=C(O)c1ccc(NCc2ccccc2F)cc1N1CCOCC1	96.4%	95.2%
79.7%	O=C(NO)c1cc(NCc2cccc(Cl)c2)ccc1C1CCOCC1	80.1%	83%
93.7%	O=C(NO)c1cc(NCc2ccc(F)cc2)ccc1C1CCOCC1	86.6%	91.6%
104%	COc1ccc(CNc2ccc(C3CCOCC3)c(C(=O)O)c2)cc1	102%	93.6%
105%	COc1ccccc1CNc1ccc(C(=O)O)c(N2CCOCC2)c1	92.6%	102%
101%	COC(=O)c1cc(NCc2ccccc2Cl)ccc1C1CCOCC1	25.9%	25.9%
104%	COC(=O)c1cc(NCc2cccc(Cl)c2)ccc1C1CCOCC1	48.3%	37.2%
80.3%	COC(=O)c1ccc(NCc2ccc(F)cc2)cc1N1CCOCC1	81.9%	65%
43.4%	O=C(NO)c1ccc(NCc2ccccc2)cc1N1CCOCC1	85.7%	89.7%
75.2%	O=C(NO)c1cc(NCc2cccc(Br)c2)ccc1C1CCOCC1	77.6%	78.8%
49.1%	O=C(NO)c1ccc(NCc2cccc(F)c2)cc1N1CCOCC1	76.2%	84.3%
80.7%	O=C(NO)c1cc(NCc2ccccc2)ccc1C1CCOCC1	90%	80.2%
75.5%	O=C(NO)c1cc(NCc2ccccc2Br)ccc1C1CCOCC1	74%	78.3%

Activity [1]	SMILES	growth at 10 µM [2]	growth at 10 µM [3]
95.2%	O=C(O)c1ccc(NCc2ccccc2Br)cc1N1CCOCC1	90%	94.4%
105%	O=C(O)c1cc(NCc2ccc(Br)cc2)ccc1C1CCOCC1	102%	104%
43.4%	O=C(O)c1cc(NCc2ccccc2F)ccc1C1CCOCC1	113%	104%
36.3%	COC(=O)c1ccc(NCc2ccccc2Br)cc1N1CCOCC1	51.3%	29.5%
30.5%	O=C(NO)c1cc(NCc2cccc(Cl)c2)ccc1N1CCOCC1		
55.8%	COC(=O)c1ccc(NCc2cccc(Cl)c2)cc1N1CCOCC1	68.9%	44.3%
112%	COC(=O)c1cc(NCc2ccc(Cl)cc2)ccc1C1CCOCC1	83.8%	56.7%
112%	O=C(O)c1cc(NCc2ccc(Cl)cc2)ccc1C1CCOCC1	115%	101%
102%	COC(=O)c1ccc(NCc2ccccc2)cc1N1CCOCC1	95.2%	85.4%
106%	COc1cccc(CNc2ccc(C3CCOCC3)c(C(=O)O)c2)c1	104%	101%
54.4%	O=C(NO)c1ccc(NCc2ccc(Cl)cc2)cc1N1CCOCC1	45.5%	57.4%
88.2%	O=C(NO)c1cc(NCc2cccc(F)c2)ccc1C1CCOCC1	84.4%	94.4%
	O=C(NO)c1cc(NCc2ccccc2Br)ccc1N1CCOCC1	7.4%	
77.2%	COC(=O)c1cc(NCc2ccccc2)ccc1C1CCOCC1	29.3%	19.8%
75.4%	COC(=O)c1cc(NCc2ccc(OC)cc2)ccc1C1CCOCC1	71.2%	54.5%
80.7%	COc1ccccc1CNc1ccc(C2CCOCC2)c(C(=O)NO)c1	80.7%	93.3%
106%	COc1cccc(CNc2ccc(C(=O)O)c(N3CCOCC3)c2)c1	101%	103%
62.3%	COC(=O)c1cc(NCc2ccccc2F)ccc1C1CCOCC1	17.6%	9.5%
104%	COC(=O)c1ccc(NCc2ccc(OC)cc2)cc1N1CCOCC1	87.5%	70.4%
113%	O=C(O)c1cc(NCc2cccc(Br)c2)ccc1C1CCOCC1	107%	104%
10.7%	O=C(O)c1cc(NCc2cccc(Cl)c2)ccc1N1CCOCC1		
110%	COC(=O)c1cc(NCc2ccc(Br)cc2)ccc1C1CCOCC1	79.6%	61.2%
94.7%	COC(=O)c1cc(NCc2ccccc2OC)ccc1C1CCOCC1	22%	31.2%
54.1%	O=C(NO)c1ccc(NCc2ccccc2Cl)cc1N1CCOCC1	41.8%	68.4%
36.2%	O=C(O)c1cc(NCc2cccc(F)c2)ccc1C1CCOCC1	104%	103%
	COC(=O)c1cc(N(C)Cc2ccccc2Cl)ccc1N1CCOCC1	83.8%	54.5%
